Measurements as given in publication PMC10237672, “Design and synthesis of novel anti-urease imidazothiazole derivatives with promising antibacterial activity against Helicobacter pylori” (PLOS ONE, 2023).
≈ marks a conversion by molar mass, not a printed value. Entries after “also recorded” stand apart in the source; their conditions may differ. Like-named read-outs stand apart in the source and are kept apart here.

What was measured:
H. pylori [1] = experiment: MIC against H. pylori, agar dilution method; assay type: cell-based, Helicobacter pylori; conditions: for MIC: Helicobacter pylori, ATCC43504, read-out: MIC value against H. pylori ± SEM; for antibacterial activity against H. pylori (in words): compared within the series and with acetohydroxamic acid
E. coli [2] = experiment: MIC against E. coli (urease negative), agar dilution method; assay type: cell-based, Escherichia coli; conditions: for MIC: Escherichia coli, ATCC25922, read-out: MIC ± SEM against E. coli (Urease-)
Protocol: (§1) The H. pylori reference strain ATCC 43504 (DSM 21031) was purchased from the German collection of microorganisms and cell cultures, GmbH (DSMZ; Germany). H. pylori was grown on Brucella agar plates (Sigma, USA) supplemented with 10% horse serum (Sigma, USA) for 72 h at 37 °C under 98% humidity and microaerophilic conditions (5% O2, 10% CO2, and 85% N2) using microaerophilic CampyGen 2.5 L pack (Oxoid, thermo scientific, UK) and anaerobic jar (Biomerieux, France). H. pylori culture was inspected after 3 to 5 days. The E. coli reference strain ATCC 25922 was purchased from the American Type Culture Collection (ATCC, Manassas, VA, USA). E. coli was grown on nutrient agar plates (Sigma, USA) for 24 h at 37 °C under aerobic conditions. Bacterial load was adjusted using a DensiCHEK PLUS device (Biomerieux, France). A regular gram stain (Biomerieux, France) was performed to confirm the identity and the morphology of H. pylori and E. coli as well as to confirm the absence of any contamination. Furthermore, a regular spotting checkup was also performed behind the micro broth dilution testing followed by a gram stain to confirm the identity of the bacteria and the absence of any potential contamination.
(§2) For MIC, the agar dilution method was performed as per the CLSI guidelines. 5 μL of the H. pylori suspension (2.0 McFarland) was plated on the Mueller–Hinton agar (Sigma, USA) supplemented with 10% horse serum including various concentrations of compounds 1a-1j and 2a-2j (0.8 mM, 0.4 mM, 0.2 mM, 0.1 mM, 0.05 mM, 0.025 mM, 0.0125 mM, and 0.006 mM). […] For the micro broth dilution test, compounds 1a-1j and 2a-2j were prepared by 2-fold serial dilution from a concentration of 0.8 mM to 0.006 mM and added to an equal H. pylori suspension of 1.0 McFarland in Mueller–Hinton broth (Sigma, USA) for 72 h. Final optical density of the bacterial suspension was measured by spectrophotometry using Synergy H1 microplate reader (BioTek, USA) at 600 nm. The half maximal inhibitory concentration (IC50) was calculated using Graph Pad Prism 8.02 for windows (Graph Pad Inc., La Jolla, CA, USA). All the tested derivatives compounds were dissolved in dimethyl sulfoxide (DMSO, Sigma, USA). […] Amoxicillin (Sigma, USA) (10 μg/mL and 0.007 μg/mL) and (12 μg/mL and 3 μg/mL) was used as a control antibiotic to confirm the agar dilution protocol for H. pylori and E. coli, respectively. Acetohydroxamic acid (AHA, Sigma, CAS number: 546-88-3) was used as a positive anti-urease control. All antimicrobial susceptibility experiments were repeated twice.

AGS gastric cells = experiment: Cytotoxicity MTT assay against AGS gastric cells; assay type: cell-based, Human; conditions: for IC50: MTT, 48 h treatment, read-out: IC50 value against AGS cells ± SEM; for Selectivity index (SI): toward H. pylori vis-à-vis AGS cells (IC50 values)
Protocol: Human gastric adenocarcinoma AGS cells (ATCC CRL-1739) were purchased from the German Cell Lines Service (CLS, Germany) and cultured in RPMI-1640 medium (Sigma, USA) supplemented with 10% fetal bovine serum (FBS, Sigma, USA) and streptomycin-penicillin (100 μg/mL and 100 IU/mL) (Sigma, USA). Cells were incubated at 37 °C in a humidified atmosphere with 5% CO2 until 80–90% confluency.
The (4, 5-dimethythiazol-2-yl) -2, 5-diphenyltetrazolium bromide (MTT, Sigma, USA) assay was used to assess the cytotoxicity of the five most significant compounds. AGS cells (5×10^3/well) were seeded in 96-well plates for 24 h and treated with various concentrations (0.8 mM, 0.4 mM, 0.2 mM, 0.1 mM, 0.05 mM, 0.025 mM, 0.0125 mM, and 0.006 mM) of the five most significant anti-urease imidazothiazole derivatives compounds (compound 1a, 1d, 1h, 2d, and 2f). After 48 h treatment, 100 μL of MTT solution (50 μg/mL) was added to each well, and the cells were incubated for additional 2 h at 37 °C. The solubilization of MTT crystals was accomplished by adding 100 μL of DMSO followed by 10 min of incubation. The plates were shaken for 5 min to dissolve the MTT formazan crystals. The optical density of each well was determined using a Synergy H1 microplate reader (Biotek, USA) at a wavelength of 570 nm. The IC50 of the tested compounds was calculated using GraphPad Prism 8.0.2 for windows (GraphPad Inc., La Jolla, CA, USA) from two repeated experiments.

E. coli [3] = experiment: IC50 against E. coli (urease negative), micro broth dilution method; assay type: cell-based, Escherichia coli; conditions: E. coli ATCC 25922, micro broth dilution
Protocol: as §1, §2

H. pylori [4] = experiment: IC50 against H. pylori, micro broth dilution test; assay type: cell-based, Helicobacter pylori; conditions: H. pylori ATCC 43504, micro broth dilution, 72 h, OD 600 nm, read-out: IC50 value against H. pylori ± SEM
Jack bean urease = molecular target: T1, Jack bean urease (Canavalia ensiformis, UniProt P07374); experiment: biochemical; assay type: biochemical
T1 construct: purchased Sigma Aldrich
T1 sequence (P07374 whole entry, looked up): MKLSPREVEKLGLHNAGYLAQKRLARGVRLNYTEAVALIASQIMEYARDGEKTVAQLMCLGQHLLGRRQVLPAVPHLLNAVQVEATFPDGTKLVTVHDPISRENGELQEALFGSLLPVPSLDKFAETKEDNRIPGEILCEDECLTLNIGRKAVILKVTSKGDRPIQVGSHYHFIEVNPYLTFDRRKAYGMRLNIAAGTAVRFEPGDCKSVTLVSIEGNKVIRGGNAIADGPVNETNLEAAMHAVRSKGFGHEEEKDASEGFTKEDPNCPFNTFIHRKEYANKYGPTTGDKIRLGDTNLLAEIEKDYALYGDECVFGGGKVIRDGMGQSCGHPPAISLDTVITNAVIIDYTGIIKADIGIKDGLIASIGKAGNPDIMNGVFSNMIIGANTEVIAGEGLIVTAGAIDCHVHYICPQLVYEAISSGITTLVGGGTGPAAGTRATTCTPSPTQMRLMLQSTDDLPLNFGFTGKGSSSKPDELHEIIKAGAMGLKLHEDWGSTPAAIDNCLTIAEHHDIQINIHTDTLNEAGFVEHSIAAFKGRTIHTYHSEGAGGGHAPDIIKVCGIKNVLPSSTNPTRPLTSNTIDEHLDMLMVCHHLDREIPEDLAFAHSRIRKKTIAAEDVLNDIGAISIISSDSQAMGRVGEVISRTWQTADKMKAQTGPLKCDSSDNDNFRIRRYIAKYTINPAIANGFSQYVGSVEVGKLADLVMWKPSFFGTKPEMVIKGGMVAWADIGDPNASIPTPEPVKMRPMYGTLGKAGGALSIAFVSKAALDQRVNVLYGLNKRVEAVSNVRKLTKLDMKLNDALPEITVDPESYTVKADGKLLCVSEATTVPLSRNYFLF
Protocol: Reaction mixture comprising 40 μL of buffer (K2HPO4: 10 mmol/L, urea: 100 mmol/L, […]: 10 mmol/L, EDTA: 1 /L mmol, pH = 8.2) and 5 U/mL enzyme (10 μL) were pre-incubated with 10 μL of synthesized compounds (1 mM) and substrate urea (1 mM) were incubated at room temperature in 96 well plate for half an hour. After the incubation at room temperature, absorbance was taken at specific wavelength (630 nm) employing a microplate reader (Bio-Tek, USA) with R1 and R2 reagents in each well. The reactions were measured in triplicate fashion. To calculate the inhibition percentage following equation was used.
Percentage inhibition = 100 –[tested compound/control compound] × 100.

Caco-2 A-B permeability = assay type: in vitro ADME; conditions: human, pH 6.5–7.4, test concentration = MIC against H. pylori (19-50 μM), reference drugs 10 μM
Protocol: (§3) The apparent permeability coefficient (Papp) of the test compound was calculated as follows: Papp(cm/s)=VR*CR,end/Δt*1/A*(CD,mid‐CR,mid) where VR is the volume of the receiver chamber. CR,end is the concentration of the test compound in the receiver chamber at the end time point, Δt is the incubation time and A is the surface area of the cell monolayer. CD,mid is the calculated mid-point concentration of the test compound in the donor side, which is the mean value of the donor concentration at time 0 minute and the donor concentration at the end time point. CR,mid is the mid-point concentration of the test compound in the receiver side, which is one half of the receiver concentration at the end time point. Concentrations of the test compound were expressed as peak areas of the test compound.
(§4) The recovery of the test compound was calculated as follows: Recovery(%)=VD*CD,end+VR*CR,end/VD*CD0*100 where VD and VR are the volumes of the donor and receiver chambers, respectively. CD,end is the concentration of the test compound in the donor sample at the end time point. CR,end is the concentration of the test compound in the receiver sample at the end time point. CD0 is the concentration of the test compound in the donor sample at time zero. Concentrations of the test compound are expressed as peak areas of the test compound.
(§5) Fluorescein was used as the cell monolayer integrity marker. Fluorescein permeability assessment (in the A-B direction at pH 7.4 on both sides) was executed after the permeability assay for the test compound.

Caco-2 cells = experiment: Caco-2 A-B permeability; assay type: in vitro ADME
Protocol: as §3, §4, §5

[5] = H. pylori ATCC 43504, agar dilution
[6] = E. coli ATCC 25922, agar dilution

SMILES | MIC value against H. pylori ± SEM (H. pylori [1]; [5]) | MIC ± SEM against E. coli (Urease-) (E. coli [2]; [6]) | IC50 (AGS gastric cells) | IC50 (E. coli [3]; read-out: IC50 ± SEM against E. coli (Urease-)) | IC50 (H. pylori [4]) | MIC (H. pylori [1]; [5]) | antibacterial activity against H. pylori (in words) (H. pylori [1]) | IC50 (Jack bean urease) | MIC (E. coli [2]; [6]) | IC50 (AGS gastric cells; Homo sapiens, AGS) | Selectivity index (SI) (AGS gastric cells) | IC50 ± SEM against E. coli (Urease-) (E. coli [3]) | Papp (Caco-2 A-B permeability) | recovery (Caco-2 A-B permeability) | Caco-2 permeability (in words) (Caco-2 cells) | IC50 (H. pylori [4]; Helicobacter pylori, ATCC43504) | melting point | activity against urease-negative E. coli (in words) (E. coli [2]; E. coli, up to 0.8 mM)
CC(=O)NO [Acetohydroxamic acid (AHA), Acetohydroxamic acid, reference compound] | 12500 ± 0 µM (≈ 938 µg/mL) | 100000 µM | 5900 ± 300 µM | 39900 ± 1780 µM | 7380 ± 320 µM |  |  |  |  |  |  |  |  |  |  |  |  | 
CS(=O)(=O)c1cccc(-c2c(-c3cccc(OS(=O)(=O)c4ccc(F)cc4)c3)nc3sccn23)c1 [Compound 2f, 3-(5-(3-(Methylsulfonyl)phenyl)imidazo[2,1-b]thiazol-6-yl)phenyl 4-fluorobenzenesulfonate] |  |  |  |  |  | 38 ± 13 µM (≈ 20.1 µg/mL) | strongest antibacterial activity | 7.19 ± 0.09 µM | > 800 µM | 45 ± 5 µM | 1.95 | No effect | 1.98 ± 0.23 ×10⁻⁶ cm/s | 71.8% | lowest permeability; also recorded: low permeability | 23 ± 8 µM |  | 
CS(=O)(=O)Oc1cccc(-c2nc3sccn3c2-c2ccccc2)c1 [Compound 1a, 3-(5-Phenylimidazo[2,1-b]thiazol-6-yl)phenyl methanesulfonate] |  |  |  |  |  | 19 ± 4 µM | strongest antibacterial activity | 4.1 ± 0.03 µM | > 800 µM | 71 ± 17 µM | 3.09 | No effect | 18.6 ± 0.79 ×10⁻⁶ cm/s | 34.4% |  | 23 ± 9 µM | 105 to 108 °C | 
NS(=O)(=O)Oc1cccc(-c2nc3sccn3c2-c2ccccc2)c1 [Compound 1h, 3-(5-Phenylimidazo[2,1-b]thiazol-6-yl)phenyl sulfamate] |  |  |  |  |  | 50 µM (≈ 18.6 µg/mL) | strongest antibacterial activity | 2.96 ± 0.02 µM | > 800 µM | 145 ± 45 µM | 5.18 | No effect | 16.9 ± 0.87 ×10⁻⁶ cm/s | 32.6% |  | 28 ± 1 µM | 173 to 175 °C | 
CS(=O)(=O)c1cccc(-c2c(-c3cccc(OS(=O)(=O)C4CCCCC4)c3)nc3sccn23)c1 [Compound 2d, 3-(5-(3-(Methylsulfonyl)phenyl)imidazo[2,1-b]thiazol-6-yl)phenyl cyclohexane-1-sulfonate] |  |  |  |  |  | 22 ± 4 µM (≈ 11.4 µg/mL) | strongest antibacterial activity | 4.46 ± 0.12 µM | > 800 µM | 30 ± 11 µM | 2.0 | No effect | 0.07 ± 0.02 ×10⁻⁶ cm/s | 73.5% | lowest permeability; also recorded: low permeability | 15 ± 3 µM | 142 to 144 °C | 
O=S(=O)(Oc1cccc(-c2nc3sccn3c2-c2ccccc2)c1)C1CCCCC1 [Compound 1d, 3-(5-Phenylimidazo[2,1-b]thiazol-6-yl)phenyl cyclohexane-1-sulfonate] |  |  |  |  |  | 31 ± 11 µM (≈ 13.6 µg/mL) | strongest antibacterial activity | 3.09 ± 0.07 µM | > 800 µM | 121 ± 44 µM | 6.05 | No effect | 0.04 ± 0.01 ×10⁻⁶ cm/s | 63% | lowest permeability; also recorded: poor Caco-2 A-B permeability; also recorded: low permeability | 20 ± 3 µM | 118 to 120 °C | did not show activity
